Experiments:
Set-up in all cases: scale not given: the % may be the effect or the level left
[1] = target: T1, Cytoplasmic tyrosine-protein kinase BMX (Homo sapiens) (UniProt P51813); experiment: Inhibition of human BMX assessed as enzyme activity at 1 uM using poly[Glu:Tyr] (4:1) as substrate preincubated for 20 mins followed by [gamma-33P]-ATP addition and measured after 120 mins by radiometric Hot-SpotSM Kinase assay relative to control
T1 sequence (whole entry): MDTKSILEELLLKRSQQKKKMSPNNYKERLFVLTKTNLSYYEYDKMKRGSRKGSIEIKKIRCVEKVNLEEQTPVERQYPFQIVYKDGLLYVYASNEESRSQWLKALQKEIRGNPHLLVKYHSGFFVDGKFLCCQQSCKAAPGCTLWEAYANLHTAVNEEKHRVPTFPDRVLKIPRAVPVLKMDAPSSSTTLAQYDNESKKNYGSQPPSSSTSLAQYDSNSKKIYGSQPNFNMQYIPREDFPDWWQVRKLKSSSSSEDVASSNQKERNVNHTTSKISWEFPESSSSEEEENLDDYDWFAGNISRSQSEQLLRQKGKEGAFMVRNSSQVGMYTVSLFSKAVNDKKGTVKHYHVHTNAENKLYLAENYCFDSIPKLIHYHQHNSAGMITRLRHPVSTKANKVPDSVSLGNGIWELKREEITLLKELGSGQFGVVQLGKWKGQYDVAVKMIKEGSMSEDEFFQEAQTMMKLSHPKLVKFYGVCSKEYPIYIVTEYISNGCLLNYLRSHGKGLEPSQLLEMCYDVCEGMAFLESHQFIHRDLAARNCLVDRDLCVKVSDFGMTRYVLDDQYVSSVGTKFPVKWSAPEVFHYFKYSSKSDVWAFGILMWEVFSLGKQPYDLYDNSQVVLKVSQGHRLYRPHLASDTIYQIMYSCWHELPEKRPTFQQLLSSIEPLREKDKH

[2] = target: MAP kinase-activated protein kinase 3 (Homo sapiens) (UniProt Q16644); experiment: Inhibition of human MAPKAPK3 assessed as enzyme activity at 1 uM using KKLNRTLSVA as substrate preincubated for 20 mins followed by [gamma-33P]-ATP addition and measured after 120 mins by radiometric Hot-SpotSM Kinase assay relative to control
Sequence of MAP kinase-activated protein kinase 3 (Homo sapiens) (Q16644 whole entry, looked up): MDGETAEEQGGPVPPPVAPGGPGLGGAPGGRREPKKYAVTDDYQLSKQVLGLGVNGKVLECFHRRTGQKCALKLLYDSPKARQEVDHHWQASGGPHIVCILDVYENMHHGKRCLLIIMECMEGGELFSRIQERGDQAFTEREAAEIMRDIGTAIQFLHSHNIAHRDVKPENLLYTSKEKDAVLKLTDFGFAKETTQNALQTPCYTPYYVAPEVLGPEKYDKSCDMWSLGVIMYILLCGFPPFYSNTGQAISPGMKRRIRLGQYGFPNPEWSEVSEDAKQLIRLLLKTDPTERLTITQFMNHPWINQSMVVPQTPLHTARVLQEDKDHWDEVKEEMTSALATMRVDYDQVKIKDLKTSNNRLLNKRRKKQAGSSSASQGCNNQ

[3] = target: Serine/threonine-protein kinase 26 (Homo sapiens) (UniProt Q9P289); experiment: Inhibition of human MST4 assessed as enzyme activity at 1 uM using myelin basic protein as substrate preincubated for 20 mins followed by [gamma-33P]-ATP addition and measured after 120 mins by radiometric Hot-SpotSM Kinase assay relative to control
Sequence of Serine/threonine-protein kinase 26 (Homo sapiens) (Q9P289 2-416 limits assumed): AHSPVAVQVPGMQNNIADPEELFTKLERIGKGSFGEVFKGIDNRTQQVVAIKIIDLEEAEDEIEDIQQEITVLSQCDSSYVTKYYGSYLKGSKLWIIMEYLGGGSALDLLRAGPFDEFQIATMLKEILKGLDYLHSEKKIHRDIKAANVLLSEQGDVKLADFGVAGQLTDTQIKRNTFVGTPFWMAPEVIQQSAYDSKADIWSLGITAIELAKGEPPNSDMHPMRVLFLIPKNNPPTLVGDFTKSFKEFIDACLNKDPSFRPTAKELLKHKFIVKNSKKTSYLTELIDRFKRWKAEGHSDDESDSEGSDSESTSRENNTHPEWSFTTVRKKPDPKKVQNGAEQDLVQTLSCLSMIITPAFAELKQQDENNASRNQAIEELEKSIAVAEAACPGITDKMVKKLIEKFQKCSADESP

[4] = target: T2, Mitogen-activated protein kinase 13 (Homo sapiens) (UniProt O15264); experiment: Inhibition of human P38d assessed as enzyme activity at 1 uM using myelin basic protein as substrate preincubated for 20 mins followed by [gamma-33P]-ATP addition and measured after 120 mins by radiometric Hot-SpotSM Kinase assay relative to control
T2 sequence (whole entry): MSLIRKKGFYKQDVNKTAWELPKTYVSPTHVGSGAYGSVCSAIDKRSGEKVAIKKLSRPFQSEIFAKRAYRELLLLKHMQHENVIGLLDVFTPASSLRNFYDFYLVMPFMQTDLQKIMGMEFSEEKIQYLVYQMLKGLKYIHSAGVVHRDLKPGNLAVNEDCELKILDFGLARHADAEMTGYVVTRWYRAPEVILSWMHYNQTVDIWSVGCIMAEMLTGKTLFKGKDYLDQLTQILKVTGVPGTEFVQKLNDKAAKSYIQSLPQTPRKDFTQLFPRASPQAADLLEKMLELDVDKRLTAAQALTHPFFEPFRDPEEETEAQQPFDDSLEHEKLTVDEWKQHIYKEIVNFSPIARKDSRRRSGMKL

[5] = target: Receptor-interacting serine/threonine-protein kinase 2 (Homo sapiens) (UniProt O43353); experiment: Inhibition of human RIPK2 assessed as enzyme activity at 1 uM using myelin basic protein as substrate preincubated for 20 mins followed by [gamma-33P]-ATP addition and measured after 120 mins by radiometric Hot-SpotSM Kinase assay relative to control
Sequence of Receptor-interacting serine/threonine-protein kinase 2 (Homo sapiens) (O43353 whole entry): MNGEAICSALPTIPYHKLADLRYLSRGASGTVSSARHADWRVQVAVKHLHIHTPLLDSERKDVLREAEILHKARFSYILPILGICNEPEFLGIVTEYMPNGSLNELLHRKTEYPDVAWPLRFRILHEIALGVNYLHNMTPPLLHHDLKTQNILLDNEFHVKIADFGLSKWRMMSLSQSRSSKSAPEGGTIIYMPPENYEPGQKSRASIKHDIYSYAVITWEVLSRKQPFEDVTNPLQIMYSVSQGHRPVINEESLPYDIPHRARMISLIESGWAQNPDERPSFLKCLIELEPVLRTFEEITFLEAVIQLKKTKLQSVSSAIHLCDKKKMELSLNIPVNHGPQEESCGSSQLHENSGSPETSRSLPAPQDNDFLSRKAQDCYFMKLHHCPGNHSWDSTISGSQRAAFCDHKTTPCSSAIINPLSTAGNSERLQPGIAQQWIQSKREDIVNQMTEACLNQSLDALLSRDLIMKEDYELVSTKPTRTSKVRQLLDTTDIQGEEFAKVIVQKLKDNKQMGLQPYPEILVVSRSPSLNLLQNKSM

[6] = target: SRSF protein kinase 2 (Homo sapiens) (UniProt P78362); experiment: Inhibition of human SRPK2 assessed as enzyme activity at 1 uM using GRSRSRSRSR as substrate preincubated for 20 mins followed by [gamma-33P]-ATP addition and measured after 120 mins by radiometric Hot-SpotSM Kinase assay relative to control
Sequence of SRSF protein kinase 2 (Homo sapiens) (P78362 whole entry, looked up): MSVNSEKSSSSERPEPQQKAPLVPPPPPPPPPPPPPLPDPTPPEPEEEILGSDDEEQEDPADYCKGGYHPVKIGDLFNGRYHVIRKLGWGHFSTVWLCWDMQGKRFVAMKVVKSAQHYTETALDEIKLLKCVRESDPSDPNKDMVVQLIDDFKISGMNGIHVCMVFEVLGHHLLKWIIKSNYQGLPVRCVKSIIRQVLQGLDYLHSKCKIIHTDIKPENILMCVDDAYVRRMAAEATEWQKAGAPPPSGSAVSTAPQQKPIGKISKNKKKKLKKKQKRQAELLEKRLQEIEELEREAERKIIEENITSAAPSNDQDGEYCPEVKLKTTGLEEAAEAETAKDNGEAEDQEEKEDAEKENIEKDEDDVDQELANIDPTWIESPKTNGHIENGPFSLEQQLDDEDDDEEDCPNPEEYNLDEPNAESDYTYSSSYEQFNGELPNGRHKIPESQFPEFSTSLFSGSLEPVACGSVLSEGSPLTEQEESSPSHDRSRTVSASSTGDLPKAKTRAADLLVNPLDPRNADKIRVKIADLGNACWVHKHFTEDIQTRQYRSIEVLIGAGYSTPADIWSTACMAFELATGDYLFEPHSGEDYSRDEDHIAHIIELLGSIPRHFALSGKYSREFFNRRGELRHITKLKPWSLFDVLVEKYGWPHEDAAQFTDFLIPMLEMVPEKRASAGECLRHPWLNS

[7] = target: T3, Serine/threonine-protein kinase tousled-like 1 (Homo sapiens) (UniProt Q9UKI8); experiment: Inhibition of human TLK1 assessed as enzyme activity at 1 uM using histone H3 as substrate preincubated for 20 mins followed by [gamma-33P]-ATP addition and measured after 120 mins by radiometric Hot-SpotSM Kinase assay relative to control
T3 sequence (whole entry): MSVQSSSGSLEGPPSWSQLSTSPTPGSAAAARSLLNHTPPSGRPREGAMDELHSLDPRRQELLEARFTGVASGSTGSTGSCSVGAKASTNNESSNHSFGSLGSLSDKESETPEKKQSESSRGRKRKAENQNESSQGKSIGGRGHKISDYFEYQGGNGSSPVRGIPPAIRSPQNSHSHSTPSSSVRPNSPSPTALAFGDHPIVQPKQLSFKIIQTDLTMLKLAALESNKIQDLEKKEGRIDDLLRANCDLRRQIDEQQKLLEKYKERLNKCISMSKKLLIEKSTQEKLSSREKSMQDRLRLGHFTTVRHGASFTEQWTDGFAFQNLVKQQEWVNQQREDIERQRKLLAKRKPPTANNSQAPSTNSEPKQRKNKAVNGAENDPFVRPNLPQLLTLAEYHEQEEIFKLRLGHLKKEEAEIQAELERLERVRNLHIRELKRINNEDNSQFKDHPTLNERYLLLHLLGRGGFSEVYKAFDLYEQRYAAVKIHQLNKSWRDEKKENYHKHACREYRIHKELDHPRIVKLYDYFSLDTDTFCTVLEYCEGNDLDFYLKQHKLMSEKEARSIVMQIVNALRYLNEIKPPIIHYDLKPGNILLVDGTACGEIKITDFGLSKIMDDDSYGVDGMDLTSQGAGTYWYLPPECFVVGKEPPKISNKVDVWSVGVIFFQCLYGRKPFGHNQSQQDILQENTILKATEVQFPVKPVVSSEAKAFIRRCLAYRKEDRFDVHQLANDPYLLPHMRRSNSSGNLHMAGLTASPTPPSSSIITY

Structure (SMILES)	Activity [1] [%]	Activity [2] [%]	Activity [3] [%]	Activity [4] [%]	Activity [5] [%]	Activity [6] [%]	Activity [7] [%]
CC[C@H](Nc1ncnc2[nH]cnc12)c1nc2cccc(F)c2c(=O)n1-c1ccccc1	87.8	97.3	91.5	96.5	96.5	91.3	100
C[C@H](Nc1ncnc2nc[nH]c12)c1cc2cccc(Cl)c2c(=O)n1-c1ccccc1	86.4	95.8	83.5	105	92.2	92.3	105
CC(C)Oc1ccc(-c2nn([C@@H](C)c3oc4ccc(F)cc4c(=O)c3-c3cccc(F)c3)c3ncnc(N)c23)cc1F [UMBRALISIB]	87.3	90.6	88.2	104	94.2	86	102

From ChEMBL document CHEMBL5715954, “Silencing c-Myc translation as a therapeutic strategy through targeting PI3Kδ and CK1ε in hematological malignancies” (Blood, 2017)
